Data published in the supplement of paper PMC10307832.

Assays:
Assay in all cases: relative viability (nuclei count vs DMSO), 5 days (fraction); higher = more cells survive
Sulindac + Palbociclib = compound: CC1=C(CC(=O)O)c2cc(F)ccc2/C1=C\c1ccc([S+](C)[O-])cc1 [Sulindac] + CC(=O)c1c(C)c2cnc(Nc3ccc(N4CCNCC4)cn3)nc2n(C2CCCC2)c1=O [Palbociclib] (partner 0.5 µM)
Summary of the method: (§1)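 Lung cancer cell lines in 1536-well plates were dosed by pin tool the day after seeding, either with one drug alone or with a fixed anchor-drug dose plus five library-drug doses (not always all listed) in √10 steps. After 5 days, cells were fixed and their nuclei stained in one step (final 0.05% Triton X-100, 1% formaldehyde, 1 ug/ml Hoechst), then counted on 4× images. Relative viability is the nuclei count in treated wells divided by that in vehicle wells. Values are medians of duplicate plates.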

[1] = compound: CN[C@@H]1C[C@H]2O[C@@](C)([C@@H]1OC)n1c3ccccc3c3c4c(c5c6ccccc6n2c5c31)C(=O)NC4 [Staurosporine] + N=C(N)NC(=N)NCCc1ccccc1 [Phenformin] (partner 250 µM)
Summary of the method: as §1

Staurosporine + Olaparib = compound: CN[C@@H]1C[C@H]2O[C@@](C)([C@@H]1OC)n1c3ccccc3c3c4c(c5c6ccccc6n2c5c31)C(=O)NC4 [Staurosporine] + O=C(c1cc(Cc2n[nH]c(=O)c3ccccc23)ccc1F)N1CCN(C(=O)C2CC2)CC1 [Olaparib] (partner 8 µM)
Summary of the method: as §1

[2] = compound: O=c1[nH]cc(F)c(=O)[nH]1 [5-Fluorouracil] + N=C(N)NC(=N)NCCc1ccccc1 [Phenformin] (partner 250 µM)
Summary of the method: as §1

Cell Line	relative viability (Sulindac + Palbociclib; first compound 0.08 µM)	relative viability (Sulindac + Palbociclib; first compound 0.253 µM)	relative viability (Sulindac + Palbociclib; first compound 0.8 µM)	relative viability (Sulindac + Palbociclib; first compound 2.53 µM)	relative viability (Sulindac + Palbociclib; first compound 8 µM)	relative viability ([1]; first compound 0.005 µM)	relative viability ([1]; first compound 0.05 µM)	relative viability ([1]; first compound 0.1581 µM)	relative viability ([1]; first compound 0.5 µM)	relative viability (Staurosporine + Olaparib; first compound 0.005 µM)	relative viability (Staurosporine + Olaparib; first compound 0.05 µM)	relative viability (Staurosporine + Olaparib; first compound 0.1581 µM)	relative viability (Staurosporine + Olaparib; first compound 0.5 µM)	relative viability ([2]; first compound 0.02 µM)	relative viability ([2]; first compound 0.2 µM)	relative viability ([2]; first compound 0.6325 µM)	relative viability ([2]; first compound 2 µM)	relative viability ([1]; first compound 0.01581 µM)	relative viability (Staurosporine + Olaparib; first compound 0.01581 µM)
NCI-H2170	0.482	0.402	0.413	0.427	0.38	0.364	0.354	0.14	0.157	0.617	0.455	0.223	0.165	0.393	0.42	0.341	0.293		
HCC-366	0.442	0.36		0.301	0.555	0.708	0.519	0.283	0.0201	0.247	0.12	0.0287	0.0185	0.562	0.622	0.424	0.0966		
NCI-H2405	0.531	0.525	0.5	0.509	0.593	0.326	0.117	0.0864	0.0856	0.204	0.14	0.122	0.0873	0.394	0.409	0.34	0.369	0.162	0.179
COR-L 105	0.387	0.402	0.365	0.412	0.395	0.312	0.176	0.207	0.181	0.562	0.326	0.386	0.26	0.452	0.495	0.45	0.337	0.217	0.401
201T	0.338	0.359	0.386	0.355	0.38	0.422	0.343	0.266	0.198	0.834	0.749	0.581	0.537	0.423	0.378	0.288	0.297		
NCI-H2228	0.876	0.967	0.487	0.864	0.831	0.254	0.11	0.0655	0.0891	0.375	0.18	0.0961	0.0588	0.408	0.249	0.259	0.249	0.166	0.211
LC-2-ad	0.521	0.514	0.37	0.469	0.547	0.485	0.154		0.171	0.684	0.483	0.154	0.0646	0.554	0.512	0.407	0.385	0.2	0.546
NCI-H2087	0.224	0.273	0.228	0.239	0.224	0.364	0.14	0.0795	0.0731	0.48	0.217	0.0849	0.0689	0.49	0.555	0.438	0.333	0.214	0.414
NCI-H358	0.135	0.139	0.129	0.139	0.136	0.337	0.0848	0.0499	0.0405	0.519	0.0954	0.0798	0.058	0.351	0.383	0.313	0.262	0.0847	0.403
